Results reported in ChEMBL document CHEMBL3808365, “Potent and Selective CK2 Kinase Inhibitors with Effects on Wnt Pathway Signaling in Vivo” (ACS Med Chem Lett, 2016).
Values after ≈ are worked out from the molar mass of the structure shown.

Columns and labels:
[1] = Inhibition of CK2 in mouse L-Wnt3a cells assessed as suppression of Wnt3a-mediated L S/L Super TOPFlash reporter gene transcription after 24 hrs; settings: L Wnt-3A
[2] = Antiproliferative activity against human […] cells after 72 hrs by alamar blue assay; assay type: functional; settings: HCT-116, 72 h
[3] = Fraction unbound in human plasma at 10 uM by equilibrium dialysis method; assay type: ADME, cell-free
[4] = Intrinsic clearance in human liver microsomes; assay type: ADME; settings: read-out: CLH
[5] = Intrinsic clearance in rat hepatocyte assessed per 10^6 cells; assay type: ADME, cell-based; settings: hepatocytes, read-out: CLH
[6] = Aqueous solubility of the compound in phosphate buffer at pH 7.4 incubated for 24 hrs by LC/MS/MS method; assay type: physicochemical
[7] = Antiproliferative activity against human SW620 cells after 72 hrs by alamar blue assay; assay type: functional; settings: SW-620, 72 h
[8] = target: Casein kinase II (Homo sapiens, UniProt P19784+P67870+P68400); test: Inhibition of CK2 in human DLD1 HA-myr-AKT1 cells assessed as suppression of AKTser129 phosphorylation after 3 to 24 hrs by Western blot analysis
[9] = target: Casein kinase II subunit alpha (Homo sapiens, UniProt P68400); test: Inhibition of full length N-terminal 6xHis-tagged recombinant human CK2alpha expressed in fall armyworm Sf21 cells using BODIPY-FL-RRRDDDSDDD-CONH2 as substrate after 90 mins by mobility shift assay
[10] = Antiproliferative activity against human DLD1 cells after 72 hrs by alamar blue assay; assay type: functional; settings: DLD-1, 72 h

Chain of Casein kinase II subunit alpha (P68400 whole entry): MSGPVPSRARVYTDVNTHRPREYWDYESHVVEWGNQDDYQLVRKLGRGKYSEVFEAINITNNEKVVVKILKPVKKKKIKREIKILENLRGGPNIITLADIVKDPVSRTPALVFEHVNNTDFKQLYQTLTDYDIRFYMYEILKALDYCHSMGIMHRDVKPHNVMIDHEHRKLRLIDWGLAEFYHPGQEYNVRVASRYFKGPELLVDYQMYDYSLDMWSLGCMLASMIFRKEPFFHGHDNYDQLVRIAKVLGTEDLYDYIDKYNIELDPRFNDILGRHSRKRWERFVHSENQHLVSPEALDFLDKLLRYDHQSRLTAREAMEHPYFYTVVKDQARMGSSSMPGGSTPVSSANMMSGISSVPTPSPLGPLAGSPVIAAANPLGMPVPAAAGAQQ
Chain of Casein kinase II (P67870 whole entry): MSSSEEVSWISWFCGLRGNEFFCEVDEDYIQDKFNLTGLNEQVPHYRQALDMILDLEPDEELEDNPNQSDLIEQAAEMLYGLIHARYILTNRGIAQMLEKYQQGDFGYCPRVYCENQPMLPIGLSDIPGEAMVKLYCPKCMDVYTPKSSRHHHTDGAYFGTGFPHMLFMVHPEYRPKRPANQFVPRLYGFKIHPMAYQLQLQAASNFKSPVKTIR
Chain of Casein kinase II (P68400 whole entry): as the sequence (P68400 whole entry) above
Chain of Casein kinase II (P19784 whole entry): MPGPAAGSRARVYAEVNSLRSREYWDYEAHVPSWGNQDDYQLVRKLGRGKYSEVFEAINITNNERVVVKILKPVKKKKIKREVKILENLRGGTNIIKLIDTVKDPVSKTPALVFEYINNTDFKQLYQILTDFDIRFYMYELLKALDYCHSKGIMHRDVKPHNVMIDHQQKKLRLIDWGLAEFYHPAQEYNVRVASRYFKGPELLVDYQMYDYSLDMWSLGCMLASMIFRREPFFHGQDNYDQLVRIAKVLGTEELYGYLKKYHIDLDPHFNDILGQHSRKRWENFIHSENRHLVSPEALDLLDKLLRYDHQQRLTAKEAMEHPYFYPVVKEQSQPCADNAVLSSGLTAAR

Row | IC50 [1] [nM] | fraction unbound at 10 µM [3] | microsomal CLint [4] [µL/min/mg] | hepatocyte CLint [5] [µL/min/1e6 cells] | solubility at 24 h [6] [µM] | IC50 [8] [nM] | IC50 [9] [nM] | Compound | GI50 [2] [nM] | GI50 [7] [nM] | GI50 [10] [nM]
1 | 600 | 0.05 | 20 | 26 | 15 (≈ 5.21 µg/mL) | – | – | CC(=O)Nc1cccc(Nc2cc(NC3CC3)n3ncc(C#N)c3n2)c1 | 700 | 700 | –
2 | 300 | 0.18 | 135 | > 300 | 275 (≈ 135 µg/mL) | 5 | < 3 | CC(=O)Nc1cc(Nc2cc(NC3CC3)n3ncc(C#N)c3n2)ccc1N(C)CCN1CCOCC1 | – | – | –
3 | 670 | 0.36 | < 3 | < 1 | 895 (≈ 388 µg/mL) | 4 | < 3 | CC(=O)Nc1cc(Nc2cc(NC3CC3)n3ncc(C#N)c3n2)ccc1N(C)C[C@H](C)N | – | – | –
4 | 180 | 0.22 | < 3 | < 1 | 704 (≈ 314 µg/mL) | – | – | CC(=O)Nc1cc(Nc2cc(NC3CC3)n3ncc(C#N)c3n2)ccc1N1CCC[C@H](N)C1 | – | – | –
5 | 960 | 0.32 | < 3 | 2.5 | 812 (≈ 350 µg/mL) | 70 | < 3 | CC(=O)Nc1cc(Nc2cc(NC3CC3)n3ncc(C#N)c3n2)ccc1N1CC[C@@H](N)C1 | – | – | –
6 | 650 | 0.2 | < 3 | < 1 | > 1000 | – | – | CC(=O)Nc1cc(Nc2cc(NC3CC3)n3ncc(C#N)c3n2)ccc1N1CCC[C@@H](N)C1 | – | – | –
7 | 400 | 0.33 | < 3 | < 1 | 825 (≈ 358 µg/mL) | 4 | < 3 | CC(=O)Nc1cc(Nc2cc(NC3CC3)n3ncc(C#N)c3n2)ccc1N(C)C[C@@H](C)N | – | – | –
8 | 1100 | 0.18 | < 4 | 7 | 570 (≈ 254 µg/mL) | – | – | CC(=O)Nc1cc(Nc2cc(NC3CC3)n3ncc(C#N)c3n2)ccc1N1CCN(C)CC1 | – | – | –
9 | 390 | 0.23 | 44 | 27 | > 1000 | – | – | CCN(CC)CCN(C)c1ccc(Nc2cc(NC3CC3)n3ncc(C#N)c3n2)cc1NC(C)=O | – | – | –
10 | 510 | 0.11 | 19 | < 1 | > 900 | – | – | CC(=O)Nc1cc(Nc2cc(NC3CC3)n3ncc(C#N)c3n2)ccc1N1CCC[C@@H](N(C)C)C1 | – | – | –
11 | 730 | 0.22 | < 4 | 15 | > 1000 | – | – | CC(=O)Nc1cc(Nc2cc(NC3CC3)n3ncc(C#N)c3n2)ccc1N(C)CCCN(C)C | – | – | –
12 | 32 | 0.3 | 5 | 2 | > 1000 | – | < 3 | CCN(CCN)c1ccc(Nc2cc(NC3CC3)n3ncc(C#N)c3n2)cc1NC(C)=O | – | – | –
13 | 690 | 0.31 | < 3 | < 1 | 590 (≈ 255 µg/mL) | 70 | < 3 | CC(=O)Nc1cc(Nc2cc(NC3CC3)n3ncc(C#N)c3n2)ccc1N1CC[C@H](N)C1 | – | – | –
14 | – | 0.07 | 21 | 17 | 2 (≈ 0.841 µg/mL) | – | < 3 | CC(=O)Nc1cc(Nc2cc(NC3CC3)n3ncc(C#N)c3n2)ccc1N(C)CCO | – | – | –
15 | 380 | 0.29 | 9 | 2.5 | > 800 | – | – | CC(=O)Nc1cc(Nc2cc(NC3CC3)n3ncc(C#N)c3n2)ccc1N1CC[C@H](N(C)C)C1 | – | – | –
16 | – | 0.1 | 10 | 5 | – | – | – | CC(=O)Nc1cc(Nc2cc(NC3CC3)n3ncc(C#N)c3n2)ccc1C | 80 | 100 | 170
17 | 760 | 0.02 | – | – | 241 (≈ 119 µg/mL) | – | – | CC(=O)Nc1cc(Nc2cc(NC3CC3)n3ncc(C#N)c3n2)ccc1N(C)CCN1CC(F)(F)C1 | – | – | –
